Experimental data taken from patent publication US20170157135A1 (Novogen Limited, priority 2013, published 2017).

What was measured:
[1] = test system: A549 lung (NSLC) cells; experiment: Anti-proliferative assay (cell-titre luminescent), A549; assay type: cell-based; conditions: Homo sapiens; A549, 72 hours, luminescence
Summary of the method: (§1)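 Luminescence read-out (cell-titre reagent, 30 min) after 72 h compound exposure at six concentrations from 0.1 to 30 μM. Viability was normalized to vehicle control, and EC50 was derived by nonlinear variable-slope dose-response regression.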

[2] = test system: CaCo2 colorectal cancer cells; experiment: Anti-proliferative assay (cell-titre luminescent), CaCo2; assay type: cell-based; conditions: Homo sapiens, Caco-2; CaCo2, 72 hours, luminescence
Summary of the method: as §1

[3] = test system: PC3 prostate cancer cells; experiment: Anti-proliferative assay (cell-titre luminescent), PC3; assay type: cell-based; conditions: PC3, 72 hours, luminescence
Summary of the method: as §1

[4] = test system: SKMEL28 melanoma (SK-MeI-28) cells; experiment: Cell viability assay (MTT), SKMEL28; assay type: cell-based; conditions: Homo sapiens, SK-MEL-28, 48 hr treatment
Experimental: (§2) Cell viability assays were also conducted to assess the anti-proliferative effects of the anti-tropomyosin compounds. Briefly, cells (1×10^3/well) were plated (96-well) and treated (48 hr) with anti-tropomyosin drug and viability measured using 3-(4,5-dimethylthiazol-2-yl)-2,5-diphenylterazolium bromide MTT. Cell viability was normalized to control (vehicle alone) and dose-response curves, and half maximal effective concentration (EC50) values were determined using Graph Pad Prism 5 (nonlinear regression sigmoidal dose-response variable slope).

[5] = test system: SK-N-SH neuroblastoma cells; experiment: Anti-proliferative assay (cell-titre luminescent), SK-N-SH; assay type: cell-based; conditions: Homo sapiens, 72 hours, luminescence
Summary of the method: as §1

[6] = test system: SHEP neuroblastoma (SH-EP) cells; experiment: Cell viability assay (MTT), SHEP; assay type: cell-based; conditions: 48 hr treatment
Experimental: as §2

[7] = test system: actin cytoskeleton; experiment: Microfilament disruption assay (phalloidin actin staining); assay type: cell-based; conditions: 24 hours
Experimental: In silico modeling has identified binding sites on tropomyosin Tm5NM1, yielding the series of tropomyosin inhibitors the subject of the present invention. Inhibition of Tm5NM1 in tumour cells results in disruption of the actin cytoskeleton and ultimately cell death. The ability of compounds 2001-2012 to disrupt the actin cytoskeleton was assessed in vitro using the microfilament disruption assay. Briefly, cells were seeded (5×10^3/well) into 8-well chamber slides (NUNC) and treated with the concentrations of anti-tropomyosin compounds nominated in Table 1 for 24 hours using DMSO as vehicle control. Actin was visualized with Alexa 555 conjugated phalloidin (Molecular probes). Random fields were imaged using an Olympus IX81 microscope. Cells (n>50) were scored on the basis of positive filament staining from n=3 independent experiments.

[8] = test system: DU145 prostate cancer cells; experiment: Anti-proliferative assay (cell-titre luminescent), DU145; assay type: cell-based; conditions: Homo sapiens, DU-145; DU145, 72 hours, luminescence
Summary of the method: as §1

[9] = test system: MDA-MB-231 breast cancer cells; experiment: Anti-proliferative assay (cell-titre luminescent), MDA-MB-231; assay type: cell-based; conditions: Homo sapiens; MDA-MB-231, 72 hours, luminescence
Summary of the method: as §1

[10] = test system: SK-Mel-28 melanoma cells; experiment: Anti-proliferative assay (cell-titre luminescent), SK-Mel-28; assay type: cell-based; conditions: Homo sapiens; SK-Mel-28, 72 hours, luminescence
Summary of the method: as §1

[11] = target: Tm5NM1 (Homo sapiens, UniProt P06753); experiment: Pyrene-based actin filament depolymerization assay, Tm5NM1-containing actin filaments; assay type: biochemical; conditions: 50 μM compound, p=0.1 vs F-actin alone
Tm5NM1, sequence (P06753 1-248 isoform P06753-2): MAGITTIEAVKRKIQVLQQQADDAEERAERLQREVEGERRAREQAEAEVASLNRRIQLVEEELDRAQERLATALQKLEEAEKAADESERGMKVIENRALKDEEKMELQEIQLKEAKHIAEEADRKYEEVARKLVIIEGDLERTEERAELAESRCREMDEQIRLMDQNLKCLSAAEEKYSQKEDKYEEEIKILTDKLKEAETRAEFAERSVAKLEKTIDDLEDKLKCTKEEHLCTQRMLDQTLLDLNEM
Experimental: FIG. 1: Impact of compound 2026 on Tm5NM1-regulated actin-filament depolymerization kinetics. (A and C) Depolymerization time course of 6 μM actin filaments (35% pyrene labelled) diluted 12-fold into F-actin buffer (100 mM NaCl, 10 mM Tris-HCl pH 7.0, 2 mM MgCl2, 1 mM EGTA, 0.2 mM CaCl2, 0.2 mM ATP, 0.5 mM DTT, 0.01% (v/v) NaN3) in the presence or absence of saturating amounts (10 μM) of Tm5NM1. Final concentration of F-actin and Tm5NM1 was 0.5 μM and 0.83 μM respectively. Tm5NM1 was pre-incubated with 50 μM compound 2026 or 1% (v/v) DMSO prior to mixing with F-actin. Depolymerization data is normalized to the initial fluorescence value. (B and D) Initial rates (V0) of depolymerization for F-actin alone or Tm5NM1/F-actin, in the presence of compound 2026. Initial rates of depolymerization were determined from the first 3600 s, fitted to a linear regression model. Data represents mean±SEM, averaged from n>6 replicates.
A brief overview and rationale of the assay is as follows: to promote depolymerization, pyrene-labelled actin filaments were diluted below the critical concentration of the pointed end (0.5 μM, as defined by Pollard et al., 1986). A decline in fluorescence was measured over time as actin monomers dissociate. […]
The depolymerization of F-actin alone and F-actin-coated with Tm5NM1 was then measured in the presence of compound and initial rates of depolymerization were compared. […]

Cc1c(/C=C/C(=O)N2CCN(CCc3ccc(F)cc3)CC2)c2ccccc2n1CCCN(C)C [Compound 2002, (E)-3-(1-(3-(dimethylamino)propyl)-2-methyl-1H-indol-3-yl)-1-(4-(4-fluorophenethyl)piperazin-1-yl)prop-2-en-1-one]
IC50 [1]: 11.9 µM | IC50 [2]: 23.5 µM | IC50 [3]: 22.5 µM | IC50 [4]: 2.01 µM | IC50 [5]: 12.2 µM | IC50 [6]: 9.6 µM | Microfilament disruption 10 μM [7]: no cells | IC50 [8]: 11.1 µM | IC50 [9]: 11.5 µM | IC50 [10]: 5.7 µM

Cc1c(/C=C/C(=O)N2CCN(CCc3ccccc3)CC2)c2ccccc2n1CCCN1CCN(C)CC1 [Compound 2008, (E)-3-(2-methyl-1-(3-(4-methylpiperazin-1-yl)propyl)-1H-indol-3-yl)-1-(4-phenethylpiperazin-1-yl)prop-2-en-1-one]
IC50 [4]: 3.7 µM | IC50 [6]: 1.92 µM | Microfilament disruption 10 μM [7]: no cells

Cc1c(/C=C/C(=O)N2CCN(Cc3ccc(F)cc3)CC2)c2ccccc2n1CCCN(C)C [Compound 2003, (E)-3-(1-(3-(dimethylamino)propyl)-2-methyl-1H-indol-3-yl)-1-(4-(4-fluorobenzyl)piperazin-1-yl)prop-2-en-1-one]
IC50 [4]: 3.1 µM | IC50 [6]: 2.3 µM | Microfilament disruption 10 μM [7]: no cells

Cc1c(/C=C/C(=O)N2CCN(CCc3ccccc3)CC2)c2ccccc2n1CCN(C)C [Compound 2006, (E)-3-(1-(2-(dimethylamino)ethyl)-2-methyl-1H-indol-3-yl)-1-(4-phenethylpiperazin-1-yl)prop-2-en-1-one]
IC50 [4]: 157 µM | IC50 [6]: 12.5 µM

CCN(CC)CCCn1c(C)c(/C=C/C(=O)N2CCN(CCc3cccc(F)c3)CC2)c2cc(OC)ccc21 [Compound 2026, (E)-3-(1-(3-(diethylamino)propyl)-5-methoxy-2-methyl-1H-indol-3-yl)-1-(4-(3-fluorophenethyl)piperazin-1-yl)prop-2-en-1-one]
IC50 [1]: 3.4 µM | IC50 [2]: 4.1 µM | IC50 [3]: 5.2 µM | IC50 [5]: 2.5 µM | Effect on Tm5NM1 function (protection of actin filaments from depolymerization) [11]: interacts with and impairs Tm5NM1 function | IC50 [8]: 9.8 µM | IC50 [9]: 4.3 µM | IC50 [10]: 1.7 µM

COc1ccc2c(c1)c(/C=C/C(=O)N1CCN(CCc3ccccc3)CC1)c(C)n2CCCN(C)C [Compound 2009, (E)-3-(1-(3-(dimethylamino)propyl)-5-methoxy-2-methyl-1H-indol-3-yl)-1-(4-phenethylpiperazin-1-yl)prop-2-en-1-one]
IC50 [1]: 54.3 µM | IC50 [2]: 16.1 µM | IC50 [3]: 30 µM | IC50 [4]: 1.86 µM | IC50 [5]: 10.8 µM | IC50 [6]: 2.4 µM | Microfilament disruption 10 μM [7]: no cells | IC50 [8]: 14.3 µM | IC50 [9]: 30 µM | IC50 [10]: 6.5 µM

CCCCN1CCN(C(=O)/C=C/c2c(C)n(CCCN(C)C)c3ccccc23)CC1 [Compound 2005, (E)-1-(4-butylpiperazin-1-yl)-3-(1-(3-(dimethylamino)propyl)-2-methyl-1H-indol-3-yl)prop-2-en-1-one]
IC50 [4]: 41 µM | IC50 [6]: 12.9 µM

C/C(=C\C(=O)N1CCN(CCc2ccccc2)CC1)c1c(C)n(CCCN(C)C)c2ccccc12 [Compound 2001, (E)-3-(1-(3-(dimethylamino)propyl)-2-methyl-1H-indol-3-yl)-1-(4-phenethylpiperazin-1-yl)but-2-en-1-one]
IC50 [4]: 1.64 µM | IC50 [6]: 11.5 µM
